Source: patent US9950026B2, “Methods for reducing oxidative damage” (Cornell Research Foundation, Inc., priority 2004, dated 2018)
Where a SMILES comes first, the peptide text is derived from it. [ ]: non-standard residue; d: D form. Dmt = Cc1cc(O)cc(C)c1C[C@H](N)C(=O)O

How the values were obtained:
SH-SY5Y = assay: tBHP-induced LDH release; assay type: cell-based, human; settings: 100 μM tBHP
Protocol: FIG. 18A-18B. SS-31 reduced tBHP-induced LDH release in SH-SY5Y (A) and N2A (B) cells. Cells were treated with 100 μM tBHP alone, or with SS-31, for 24 h. *P<0.05, **P<0.01, ***P<0.001, compared to tBHP alone.
The loss of cell viability induced by 100 μM tBHP was accompanied by a significant increase in LDH release in SH-SY5Y (FIG. 18A) and N2A cell (FIG. 18B).

[1] = test system: G93A transgenic familial ALS mice; assay: Disease onset, survival and tolerability in ALS mice; assay type: in vivo; settings: 5 mg/kg SS-31 i.p.
Protocol: FIG. 25A-25B. (A) Cumulative probability of disease on set and survival with SS-31 5 mg/kg/day treatment (n=14) […] as compared to vehicle treatment (n=14). […] (B) Mean survival (days) of G93A mice treated with vehicle or SS-31 5 mg/kg/day. (Data are mean±SD, p<0.05, Student's t-test).
Treatment with 5 mg-kg SS-31 i.p. started at 30 days of age of G93A transgenic familial amyotrophic lateral sclerosis (ALS) mice (high copy number, B6SJL-Tg(SOD1-G93A)1Gur/J) led to a significant delay of disease onset as defined by the appearance of tremor and hind limb clasping as well as deterioration in the rotarod performance, the average age of onset in the control group was 88+7 days, in the SS-31 treated group 95+6 days (p<0.05, Logrank (Mantel-Cox)). […] There was a gender effect on survival which has been observed in previous studies with this model as well in G93A mice in this background with males having a shorter life span than females (average of 5 days).

N2A cells [2] = assay: Mitochondrial potential (TMRM) after tBHP; assay type: cell-based, murine; settings: 0.1 mM t-BHP, 1 nM SS-31, 6 h
Protocol: N2A cells in glass bottom dish were treated with 0.1 mM t-BHP, alone or with 1 nM SS-31, for 6 h. Cells were then loaded with 10 μm of dichlorofluorescin (ex/em=485/530) for 30 min at 37° C., 5% CO2. Then cells were subjected 3 times wash with HBSS and stained with 20 nM of Mitotracker TMRM (ex/em=550/575 nm) for 15 min at 37° C. and examined by confocal laser scanning microscopy.

N2A cells [3] = assay: Pan-caspase activity (FLICA kit) after tBHP; assay type: cell-based, murine
Protocol: FIG. 21A-B. SS-31 prevented caspase activation in N2A cells treated with tBHP. […]
[…] All treatments were carried out in quadriplicates. […] Cells were gently lifted from the plates with a cell detachment solution (Accutase, Innovative Cell Technologies, Inc., San Diego, Calif.) and washed twice in PBS. Caspase activity was assayed using the FLICA kit (Immunochemistry Technologies LLC, Bloomington, Minn.) According to the manufacturer's recommendation, cells were resuspended (approx. 5×10^6 cells/ml) in PBS and labeled with pan-caspase inhibitor FAM-VAD-FMK for 1 h at 37° C. under 5% CO2 and protected from the light. Cells were then rinsed to remove the unbound reagent and fixed. Fluorescence intensity in the cells was measured by a […] (Beckman-Coulter XL, Beckman Coulter, Inc., Fullerton, Calif.) using the standard emission filters for green (FL1). For each run, 10,000 individual events were collected and stored in list-mode files for off-line analysis.

N2A cells [4] = assay: Caspase-9 activity (FLICA) after tBHP; assay type: cell-based, murine; settings: 50 μM tBHP, 12 h, 1 nM SS-31
Protocol: FIG. 21A-B. SS-31 prevented caspase activation in N2A cells treated with tBHP. […] (B)(a-c) N2A cells were treated with 50 μM tBHP for 12 h and stained with caspase-9 FLICA™ kit containing red fluorescent inhibitor SR-LEHD-FMK and Hoechst 33342.

mice treated with MPTP = assay: MPTP animal model of Parkinson's Disease; assay type: in vivo; settings: MPTP 3 x 10 mg/kg, sacrificed one week later
Protocol: MPTP is a neurotoxin that selectively destroys striatal dopamine neurons and can be used as an animal model of Parkinson's Disease. MPP^+, a metabolite of MPTP, targets mitochondria, inhibits complex I of the electron transport chain and increases ROS production. MPP^+ is used in cell culture studied because cells are unable to metabolize MPTP to the active metabolite. MPTP is used for animal studies.
Three doses of MPTP (10 mg/kg) was given to mice (n=12) 2 h apart. SS-31 was administered 30 min before each MPTP injection, and at 1 h and 12 h after the last MPTP injection. Animals were sacrificed one week later and striatal brain regions were immunostained for tyrosine hydroxylase activity.
Three doses of MPTP (10 mg/kg) was given to mice (n=12) 2 h apart. SS-31 was administered 30 min before each MPTP injection, and at 1 h and 12 h after the last MPTP injection.
Animals were sacrificed one week later and dopamine, DOPAC and HVA levels were quantified by high pressure liquid chromatography.

Caco-2 = assay: Cellular uptake of [3H][Dmt1]DALDA; assay type: in vitro ADME, human; settings: estimated
Protocol: The cellular uptake of [^3H][Dmt^1]DALDA was studied using a human intestinal epithelial cell line (Caco-2), and confirmed with SH-SY5Y (human neuroblastoma cell), HEK293 (human embryonic kidney cell) and CRFK cells (kidney epithelial cell). Monolayers of cells were grown on 12-well plates (5×10^5 cells/well) coated with collagen for 3 days. On day 4, cells were washed twice with pre-warmed HBSS, and then incubated with 0.2 ml of HBSS containing either 250 nM [^3H][Dmt^1]DALDA at 37° C. […] 4° C. for various times up to 1 h.
In a separate experiment, cells were incubated with a range of [Dmt^1]DALDA concentrations (1 μM-3 mM) for 1 h at 37° C. At the end of the incubation period, cells were washed 4 times with HBSS, and 0.2 ml of 0.1N NaOH with 1% SDS was added to each well. The cell contents were then transferred to scintillation vials and radioactivity counted. To distinguish between internalized radioactivity from surface-associated radioactivity, an acid-wash step was included. Prior to cell lysis, cells were incubated with 0.2 ml of 0.2 M acetic acid/0.05 M NaCl for 5 min on ice.

Molecule | LDH release (SH-SY5Y; 0.1 and 1 nM of SS-31) | LDH release (SH-SY5Y; 24 h) | average age of onset [1] | survival [1] | tolerability / side effects [1] | increase in survival ([1]; vs control) [%] | mitochondrial depolarization (TMRM fluorescence) (N2A cells [2]) | increase in pan-caspase activity (N2A cells [3]; 100 μM tBHP, 24 h) | caspase activity (N2A cells [3]; t-BHP 12 h) | cells showing caspase-9 staining (N2A cells [4]) | loss of dopamine neurons (tyrosine hydroxylase immunostaining) (mice treated with MPTP) | striatal DOPAC levels (mice treated with MPTP) | striatal HVA levels (mice treated with MPTP) | striatal dopamine levels (mice treated with MPTP) | intracellular concentration relative to extracellular concentration (Caco-2)
Cc1cc(O)cc(C)c1C[C@H](NC(=O)[C@H](N)CCCNC(=N)N)C(=O)N[C@@H](CCCCN)C(=O)N[C@@H](Cc1ccccc1)C(N)=O [SS-31, D-Arg-2′6′-Dmt-Lys-Phe-NH2] (H-[dR][Dmt]KF-NH2; N-terminus assumed) | reduced significantly | dose-dependent decrease | 95+6 days | 142+12 day | well tolerated and no side effects were observed | 9 | prevented mitochondrial depolarization | dose-dependently prevented | dose-dependently inhibited | reduced the number of cells showing caspase-9 staining | dose-dependently prevented loss | dose-dependently increased | dose-dependently increased | dose-dependently increased | 
2′,6′-Dmt-Arg-Phe-Lys-NH2 [SS-02] |  |  |  |  |  |  |  |  |  |  |  |  |  |  | approximately 50 times
